# Assay results: article PMC10303159, “Conjugation of Triterpenic Acids of Ursane and Oleanane Types with Mitochondria-Targeting Cation F16 Synergistically Enhanced Their Cytotoxicity against Tumor Cells” (Membranes, 2023)
# Where a name gives a salt, the structure may show the parent alone.
# Experiments:
# [1] = test system: A549 cells (human lung carcinoma); test: MTT cytotoxicity assay, A549; assay type: cell-based; conditions: for IC50: MTT assay, 48 h of treatment, mean ± SEM
# From the text: (§1) All cell lines used in this study (human non-small cell lung cancer—H1299 (Accession Number—CRL-5803), human lung carcinoma—A549 (Accession Number—CCL-185), human breast adenocarcinoma—MCF-7 (Accession Number—HTB-22), human breast ductal carcinoma—BT474 (Accession Number—HTB-20)) were purchased from American Type Culture Collection (ATCC, Manassas, VA, USA). Human primary dermal fibroblasts (HPDF) derived from a patch of skin of healthy donors (n = 3) were obtained from the biobank of the Institute for Regenerative Medicine, Lomonosov Moscow State University, collection ID: MSU_FB (https://human.depo.msu.ru (accessed on 14 September 2021)). Cells were grown in DMEM media supplemented with 10% fetal bovine serum, 100 μg/mL gentamycin, and 2 mM of glutamine at 37 °C in a 5% CO2 atmosphere.
# (§2) To carry out the MTT assay, 3500 cells per well were seeded in 96-well plates. […] DMSO was used as a control. […] After removing the thiazol-containing medium, 150 μL of isopropyl alcohol (supplemented with 40 mM HCl and 0.1% NP-40) was added to dissolve the MTT-formazan salt. The absorbance at 570 and 630 nm (reference) was measured using a BioRad iMark microplate reader (BioRad, Hercules, CA, USA). Four biological replicates were used for the experiment. The results were processed with Excel software (version number: 14.0.6023.1000 (32-bit)). IC50 values were calculated by using AAT Bioquest online calculator (https://www.aatbio.com/tools/ic50-calculator, accessed on 15 May 2023) and are represented as the mean ± SEM.
# rat liver mitochondria [2] = test: Respiration of isolated mitochondria fueled by succinate; assay type: biochemical
# Procedure: (§3) Mitochondria were obtained from the liver of male Wistar rats (210–250 g) using the differential centrifugation method. The detailed procedure and composition of the isolation media were described earlier. The suspension of isolated mitochondria contained about 60–70 mg of mitochondrial protein per ml (determined by the Bradford method).
# (§4) The rate of O2 consumption by mitochondrial samples was estimated using Oxygraph Plus (Hansatech Instruments Ltd., Pentney, King’s Lynn, UK). The reaction medium included 200 mM sucrose, 20 mM KCl, 0.5 mM EGTA, 5 mM KH2PO4, and 10 mM Hepes/KOH, pH 7.4. The following combinations of substrates and reagents were used: 2.5 mM potassium glutamate + 2.5 mM potassium malate and 5 mM potassium succinate + 1 µM rotenone. Under these conditions, it is possible to assess the oxygen-consuming capacity of mitochondria through complexes I and II of the electron transport chain. To determine the rates of the phosphorylating respiration (State 3) and uncoupled respiration (State 3UDNP) of the mitochondria, 200 µM ADP and 50 µM 2,4-dinitrophenol (DNP) were added sequentially. The concentration of mitochondrial protein was 1 mg/mL.
# rat liver mitochondria [3] = test: Respiration of isolated mitochondria fueled by glutamate and malate; assay type: biochemical
# Procedure: as §3, §4
# [4] = test system: MCF-7 cells (human breast adenocarcinoma); test: MTT cytotoxicity assay, MCF-7; assay type: cell-based; conditions: for IC50: Homo sapiens, MCF7, MTT assay, 48 h of treatment, mean ± SEM
# From the text: as §1
# (§5) To carry out the MTT assay, 3500 cells per well were seeded in 96-well plates. A day after the seeding, triterpenoids or their derivatives dissolved in DMSO were added. DMSO was used as a control. At 48 h after cell seeding, 10 μL of 5 mg/mL Thiazolyl Blue (Paneko, Russia) solution was added to each well and cells were kept for 3 h at 37 °C in a CO2 incubator. After removing the thiazol-containing medium, 150 μL of isopropyl alcohol (supplemented with 40 mM HCl and 0.1% NP-40) was added to dissolve the MTT-formazan salt. The absorbance at 570 and 630 nm (reference) was measured using a BioRad iMark microplate reader (BioRad, Hercules, CA, USA). Four biological replicates were used for the experiment. The results were processed with Excel software (version number: 14.0.6023.1000 (32-bit)). IC50 values were calculated by using AAT Bioquest online calculator (https://www.aatbio.com/tools/ic50-calculator, accessed on 15 May 2023) and are represented as the mean ± SEM.
# [5] = test system: BT474 cells (human breast ductal carcinoma); test: MTT cytotoxicity assay, BT474; assay type: cell-based; conditions: BT-474, 48 h of treatment, mean ± SEM
# From the text: as §1, §5
# [6] = test system: Human primary dermal fibroblasts (HPDF); test: MTT cytotoxicity assay, HPDF; assay type: cell-based; conditions: for IC50: Homo sapiens, Fibroblast, MTT assay, 48 h of treatment, mean ± SEM; for Selectivity against tumor cells and human fibroblasts: in words
# From the text: as §1, §2
# [7] = test system: H1299 cells (human non-small cell lung cancer); test: MTT cytotoxicity assay, H1299; assay type: cell-based; conditions: mean ± SEM
# From the text: as §1, §5
# BT474 cells = test: Oxidative stress assay (Muse Oxidative Stress Kit), BT474; assay type: cell-based, human; conditions: BT474, 3 μM
# Procedure: Oxidative stress was assessed after cell culture and incubation (as described above). For this, cells were harvested by trypsinization, washed with ice-cold PBS buffer (pH 7.4), and centrifuged (1000 rpm, 5 min). The resulting cells were resuspended in PBS. Cell population analysis for oxidative stress was performed on a Muse cell analyzer (Merck Millipore, Burlington, MA, USA) using the Muse Oxidative Stress Kit (MCH100111) according to the manufacturer’s protocol.
# rat liver mitochondria [8] = test: Mitochondrial membrane potential (TPP-sensitive electrode); assay type: biochemical; conditions: glutamate + malate or succinate + rotenone, Figure 5
# Procedure: as §3
# The mitochondrial membrane potential (Δψ) was measured using a penetrating tetraphenylphosphonium bromide (TPP) cation and a TPP-sensitive electrode (Nico-Analyte Ltd., Moscow, Russia) as described previously. The concentration of mitochondrial protein was 1 mg/mL.
# [9] = Homo sapiens, NCI-H1299, 48 h of treatment
SMILES,"IC50 ([1]; Homo sapiens, A549, 48 h)",ADP/O (rat liver mitochondria [2]; 20 μM),RC (state 3/state 4) (rat liver mitochondria [2]; 20 μM),State 2 respiration (rat liver mitochondria [2]; 20 μM),State 3UDNP respiration (rat liver mitochondria [2]; 20 μM),State 3 respiration (rat liver mitochondria [2]; 20 μM),State 4 respiration (rat liver mitochondria [2]; 20 μM),ADP/O (rat liver mitochondria [3]; 20 μM),RC (state 3/state 4) (rat liver mitochondria [3]; 20 μM),State 2 respiration (rat liver mitochondria [3]; 20 μM),State 3UDNP respiration (rat liver mitochondria [3]; 20 μM),State 3 respiration (rat liver mitochondria [3]; 20 μM),State 4 respiration (rat liver mitochondria [3]; 20 μM),IC50 [4],IC50 [5],IC50 [6],Selectivity against tumor cells and human fibroblasts [6],"IC50 [7, 9]",IC50 [1],further results
CC1CCC2(C(=O)OCCCC[n+]3ccc(C=Cc4c[nH]c5ccccc45)cc3)CCC3(C)C(=CCC4C5(C)CCC(O)C(C)(C)C5CCC43C)C2C1C (stereo not shown) [UA-F16],2.4 ± 0.3 µM,0.86 ± 0.05 *#^γ rel. un.,1.37 ± 0.11 rel. un.,15.86 ± 0.40 nmol O2/min/mg Protein,64.18 ± 3.81 nmol O2/min/mg Protein,43.98 ± 1.31 nmol O2/min/mg Protein,32.20 ± 1.68 nmol O2/min/mg Protein,0.74 ± 0.14 rel. un.,1.02 ± 0.02 rel. un.,14.75 ± 0.21 nmol O2/min/mg Protein,28.29 ± 1.18 nmol O2/min/mg Protein,19.35 ± 0.90 nmol O2/min/mg Protein,19.06 ± 1.11 nmol O2/min/mg Protein,1.36 ± 0.74 µM,5.18 ± 0.15 µM,4.98 ± 0.9 µM,highest selectivity,2.8 ± 0.25 µM,–,"ADP/O (rat liver mitochondria [2]; 10 μM): 1.28 ± 0.04 rel. un.; RC (state 3/state 4) (rat liver mitochondria [2]; 10 μM): 2.65 ± 0.07 rel. un.; State 2 respiration (rat liver mitochondria [2]; 10 μM): 14.42 ± 0.24 nmol O2/min/mg Protein; State 3UDNP respiration (rat liver mitochondria [2]; 10 μM): 67.34 ± 2.12 nmol O2/min/mg Protein; State 3 respiration (rat liver mitochondria [2]; 10 μM): 46.39 ± 0.30 nmol O2/min/mg Protein; State 4 respiration (rat liver mitochondria [2]; 10 μM): 17.51 ± 0.23 nmol O2/min/mg Protein; ADP/O (rat liver mitochondria [3]; 10 μM): 2.65 ± 0.05 rel. un.; RC (state 3/state 4) (rat liver mitochondria [3]; 10 μM): 2.20 ± 0.04 rel. un.; State 2 respiration (rat liver mitochondria [3]; 10 μM): 7.70 ± 0.33 nmol O2/min/mg Protein; State 3UDNP respiration (rat liver mitochondria [3]; 10 μM): 35.23 ± 0.89 nmol O2/min/mg Protein; State 3 respiration (rat liver mitochondria [3]; 10 μM): 25.89 ± 0.86 nmol O2/min/mg Protein; State 4 respiration (rat liver mitochondria [3]; 10 μM): 11.78 ± 0.22 nmol O2/min/mg Protein; Chou–Talalay combination index (CI) ([4]; MCF7 cells, based on IC50 values for parent acid, F16 [23] and conjugate, CI < 1 synergism): 0.05; Selectivity index (SI) ([6]; between tumor cells H1299, A549 and MCF-7 and fibroblasts): 1.8–3.7; Effect on level of ROS-positive cells (BT474 cells): significantly increase the level of ROS-positive cells"
"CC1(C)CCC2(C(=O)OCCCC[n+]3ccc(C=Cc4c[nH]c5ccccc45)cc3)CCC3(C)C(=CCC4C5(C)CC(O)C(O)C(C)(C)C5CCC43C)C2C1 (stereo not drawn) (as salt: bromide) [MA-F16, N-{4-[(2α,3β-dihydroxy-olean-12-en-28-oyl)-butyl]-(E)-4-[2-(1H-indol-3-yl)-vinyl]}pyridinium bromide]",–,–,–,–,–,–,–,–,–,–,–,–,–,–,–,–,–,–,–,melting point: 206 to 208 °C
"CC1CCC2(C(=O)OCCCC[n+]3ccc(C=Cc4c[nH]c5ccccc45)cc3)CCC3(C)C(=CCC4C5(C)CC(O)C(O)C(C)(C)C5CCC43C)C2C1C (stereo not drawn) (as salt: bromide) [CA-F16, N-{4-[(2α,3β-dihydroxy-urs-12-en-28-oyl)-butyl]-(E)-4-[2-(1H-indol-3-yl)-vinyl]}pyridinium bromide]",–,–,–,–,–,–,–,–,–,–,–,–,–,–,–,–,–,–,–,melting point: 219 to 221 °C
"CC1(C)CCC2(C(=O)OCCCC[n+]3ccc(C=Cc4c[nH]c5ccccc45)cc3)CCC3(C)C(=CCC4C5(C)CC(O)C(O)C(C)(C)C5CCC43C)C2C1 (stereo not drawn) [MA-F16, N-{4-[(2α,3β-dihydroxy-olean-12-en-28-oyl)-butyl]-(E)-4-[2-(1H-indol-3-yl)-vinyl]}pyridinium bromide]",13.5 ± 2.02 µM,–,–,–,–,–,–,–,–,–,–,–,–,7.44 ± 0.78 µM,11.1 ± 2.51 µM,9.3 ± 2.56 µM,–,10.5 ± 2.44 µM,–,–
"CC1CCC2(C(=O)OCCCC[n+]3ccc(C=Cc4c[nH]c5ccccc45)cc3)CCC3(C)C(=CCC4C5(C)CC(O)C(O)C(C)(C)C5CCC43C)C2C1C (stereo not drawn) [CA-F16, N-{4-[(2α,3β-dihydroxy-urs-12-en-28-oyl)-butyl]-(E)-4-[2-(1H-indol-3-yl)-vinyl]}pyridinium bromide]",1.9 µM,–,–,–,–,–,–,–,–,–,–,–,–,1.89 ± 0.27 µM,6.7 ± 0.35 µM,1.15 ± 0.38 µM,–,4.01 ± 1.69 µM,1.87 ± 0.14 µM,"Cytotoxicity higher than that of ursolic acid ([1]; A549 line, ratio of IC50 values): 36 times"
"C[C@H]1[C@H](C)CC[C@]2(C(=O)O)CC[C@]3(C)C(=CC[C@@H]4[C@@]5(C)CC[C@H](O)C(C)(C)[C@@H]5CC[C@]43C)[C@H]12 [UA, ursolic acid, reference compound]",68.9 µM,1.43 ± 0.04 rel. un.,3.32 ± 0.12 rel. un.,15.19 ± 0.27 nmol O2/min/mg Protein,75.91 ± 1.74 nmol O2/min/mg Protein,49.15 ± 0.30 nmol O2/min/mg Protein,15.54 ± 0.62 nmol O2/min/mg Protein,2.82 ± 0.03 rel. un.,2.13 ± 0.09 rel. un.,8.01 ± 0.15 nmol O2/min/mg Protein,36.66 ± 1.47 nmol O2/min/mg Protein,26.92 ± 0.64 nmol O2/min/mg Protein,12.65 ± 0.32 nmol O2/min/mg Protein,40.6 ± 12.5 µM,110 ± 19.1 µM,59.1 ± 7.73 µM,have not shown selectivity,97.6 ± 5.63 µM,68.9 ± 19.6 µM,Effect on membrane potential of organelles (rat liver mitochondria [8]): did not show such an ability
"CC1(C)CC[C@]2(C(=O)O)CC[C@]3(C)C(=CC[C@@H]4[C@@]5(C)CC[C@H](O)C(C)(C)[C@@H]5CC[C@]43C)[C@@H]2C1 [OA, oleanolic acid, reference compound]",236 µM,1.45 ± 0.05 rel. un.,2.80 ± 0.09 rel. un.,15.06 ± 0.15 nmol O2/min/mg Protein,69.92 ± 0.68 nmol O2/min/mg Protein,48.00 ± 0.60 nmol O2/min/mg Protein,17.18 ± 0.78 nmol O2/min/mg Protein,2.53 ± 0.12 rel. un.,2.11 ± 0.12 rel. un.,8.39 ± 0.09 nmol O2/min/mg Protein,35.74 ± 0.66 nmol O2/min/mg Protein,27.31 ± 0.31 nmol O2/min/mg Protein,13.23 ± 0.18 nmol O2/min/mg Protein,114 ± 12.6 µM,150 ± 25.1 µM,156 ± 10.4 µM,have not shown selectivity,–,234 ± 22.1 µM,"Effect on membrane potential of organelles (rat liver mitochondria [8]): slightly reduce the membrane potential; IC50 ([7]; 48 h of treatment): 139 ± 6.85 µM; IC50 ([7]; Homo sapiens, NCI-H1299, 48 h, 48 h of treatment): 139 µM"
